We go through two compounds from ChEMBL document CHEMBL4334495, “Design and Biological Evaluation of m-Xylene Thioether-Stapled Short Helical Peptides Targeting the HIV-1 gp41 Hexameric Coiled-Coil Fusion Complex” (J Med Chem, 2019).

Experiment [1] concerns Human immunodeficiency virus 1. The experiment is described as follows: Antiviral activity against X4 tropic HIV-1 subtype-B 3B infected in human MT2 cells or CEMx174 5.25 M7 cells assessed as reduction in p24 Gag protein production at 24:1 ratio of hCS6ERE to compound measured at 4 days post-infection by ELISA. The class given is functional, cell-based, HIV-1 group M. The conditions noted are these: Human immunodeficiency virus 1, 3B, 96 h.

The subject of experiment [2] is Human immunodeficiency virus 1. The experiment is described as follows: Ratio of EC50 for antiviral activity against X4 tropic HIV-1 subtype-B 3B infected in human MT2 cells or CEMx174 5.25 M7 cells in absence of hCS6ERE to EC50 for antiviral activity against X4 tropic HIV-1 subtype-B 3B infected in human MT2 cells or CEMx174 5.25 M7 cells at 24:1 ratio of hCS6ERE to compound. It counts as functional, HIV-1 group M.

In experiment [3] the test system is Human immunodeficiency virus 1. Put plainly: Ratio of EC50 for antiviral activity against R5 tropic HIV-1 subtype-B Bal infected in human MT2 cells or CEMx174 5.25 M7 cells in absence of hCS6ERE to EC50 for antiviral activity against R5 tropic HIV-1 subtype-B Bal infected in human MT2 cells or CEMx174 5.25 M7 cells at 6:1 ratio of hCS6ERE to compound. The class given is functional, HIV-1 group M.

The test system of experiment [4] is Human immunodeficiency virus 1. Put plainly: Antiviral activity against HIV1 NL4-3 infected in human MT2 cells or CEMx174 5.25 M7 cells assessed as reduction in p24 Gag protein production at 5:1 hCS6ERE to compound ratio measured at 4 days post-infection by ELISA. It counts as functional, organism-based. To be noted: Human immunodeficiency virus 1, NL4-3, 96 h. In general terms: In an ELISA, binding on a coated surface is turned into a signal by an enzyme label.

Experiment [5] has as its system Human immunodeficiency virus 1. The experiment is described as follows: Antiviral activity against T20 resistant HIV1 NL4-3 harboring with V38E/N42S mutant infected in human MT2 cells or CEMx174 5.25 M7 cells assessed as reduction in p24 Gag protein production at 3500:1 hCS6ERE to compound ratio measured at 4 days post-infection by ELISA. It counts as functional, organism-based.

Experiment [6] deals with Human immunodeficiency virus 1. Put plainly: Ratio of EC50 for antiviral activity against T2635 resistant HIV1 LAI harboring Q66R mutant infected in human MT2 cells or CEMx174 5.25 M7 cells in absence of hCS6ERE to antiviral activity against T2635 resistant HIV1 LAI harboring Q66R mutant infected in human MT2 cells or CEMx174 5.25 M7 cells at 12.5:1 ratio of hCS6ERE to compound. It counts as functional, M:B_Lai.

For experiment [7], the system named is Human immunodeficiency virus 1. The experiment is described as follows: Ratio of EC50 for antiviral activity against T2635 resistant HIV1 LAI harboring Q66R mutant infected in human MT2 cells or CEMx174 5.25 M7 cells in absence of hCS6ERE to antiviral activity against T2635 resistant HIV1 LAI harboring Q66R mutant infected in human MT2 cells or CEMx174 5.25 M7 cells at 25:1 ratio of hCS6ERE to compound. The class given is functional, M:B_Lai.

Experiment [8] concerns the target Envelope glycoprotein gp160 (Human immunodeficiency virus 1) (UniProt Q6QLK5). Put plainly: Binding affinity to HIV1 GP41 using GP41 NHR derived N36 peptide assessed as formation of oligomeric complex at 100 uM incubated for 30 mins by Coomassie blue R250 staining based Native-PAGE analysis.
For experiment [9] the target is unchanged. Put plainly: Synergistic inhibition of HIV1 gp41-induced cell-cell fusion between viral envelope expressing human HL2/3 cells to CD4/CCR5 receptor expressing TZM-bl cells assessed as combination index at 1:1 compound to HP23 ratio incubated for 6 hrs by luciferase reporter gene assay. For orientation: In a reporter assay the amount or activity of a reporter protein is the signal.

Experiment [10] deals with Human immunodeficiency virus 1. The experiment is described as follows: Synergistic antiviral activity against X4 tropic HIV-1 subtype-B 3B infected in human MT2 cells or CEMx174 5.25 M7 cells assessed as reduction in p24 Gag protein production by measuring combination index at 6:1 compound to HP23 ratio measured at 4 days post-infection by ELISA. The class given is functional, HIV-1 group M.

The subject of experiment [11] is Human immunodeficiency virus 1. The experiment is described as follows: Synergistic antiviral activity against X4 tropic HIV-1 subtype-B 3B infected in human MT2 cells or CEMx174 5.25 M7 cells assessed as reduction in p24 Gag protein production by measuring combination index at 12:1 compound to HP23 ratio measured at 4 days post-infection by ELISA. It counts as functional, HIV-1 group M.

Experiment [12] relates to Human immunodeficiency virus 1. Put plainly: Antiviral activity against X4 tropic HIV-1 subtype-B 3B infected in human MT2 cells or CEMx174 5.25 M7 cells assessed as reduction in p24 Gag protein production at 6:1 compound to HP23 ratio measured at 4 days post-infection by ELISA. It counts as functional, cell-based, HIV-1 group M. The conditions noted are these: Human immunodeficiency virus 1, 3B, 96 h.

Experiment [13] concerns Human immunodeficiency virus 1. The experiment is described as follows: Ratio of EC50 for antiviral activity against X4 tropic HIV-1 subtype-B 3B infected in human MT2 cells or CEMx174 5.25 M7 cells in absence of HP23 to EC50 for antiviral activity against X4 tropic HIV-1 subtype-B 3B infected in human MT2 cells or CEMx174 5.25 M7 cells at 6:1 compound to HP23 ratio. The class given is functional, HIV-1 group M.

Experiment [14] concerns Human immunodeficiency virus 1. Put plainly: Antiviral activity against R5 tropic HIV-1 subtype-B Bal infected in human MT2 cells or CEMx174 5.25 M7 cells assessed as reduction in p24 Gag protein production at 3:1 ratio of compound to HP23 measured at 4 days post-infection by ELISA. To be noted: Human immunodeficiency virus 1, Bal, 96 h. The class given is functional, cell-based, HIV-1 group M.

In experiment [15] the test system is Human immunodeficiency virus 1. Put plainly: Antiviral activity against R5 tropic HIV-1 subtype-B Bal infected in human MT2 cells or CEMx174 5.25 M7 cells assessed as reduction in p24 Gag protein production at 6:1 ratio of compound to HP23 measured at 4 days post-infection by ELISA. It counts as functional, cell-based, HIV-1 group M. The conditions noted are these: Human immunodeficiency virus 1, Bal, 96 h.

For experiment [16], the system named is Human immunodeficiency virus 1. Put plainly: Ratio of EC50 for antiviral activity against HIV1 NL4-3 infected in human MT2 cells or CEMx174 5.25 M7 cells in absence of HP23 to EC50 for antiviral activity against HIV1 NL4-3 infected in human MT2 cells or CEMx174 5.25 M7 cells at 5:1 compound to HP23 ratio. It counts as functional.
Experiment [17] has as its system Human immunodeficiency virus 1. The experiment is described as follows: Ratio of EC50 for antiviral activity against HIV1 NL4-3 infected in human MT2 cells or CEMx174 5.25 M7 cells in absence of HP23 to EC50 for antiviral activity against HIV1 NL4-3 infected in human MT2 cells or CEMx174 5.25 M7 cells at 20:1 compound to HP23 ratio. It counts as functional.
Experiment [18] has as its system Human immunodeficiency virus 1. The experiment is described as follows: Synergistic antiviral activity against T20 resistant HIV1 NL4-3 harboring with V38E/N42T mutant infected in human MT2 cells or CEMx174 5.25 M7 cells assessed as reduction in p24 Gag protein production by measuring combination index at 600:1 compound to HP23 ratio measured at 4 days post-infection by ELISA. The class given is functional.

In experiment [19] the test system is Human immunodeficiency virus 1. The experiment is described as follows: Ratio of EC50 for antiviral activity against T20 resistant HIV1 NL4-3 harboring with V38E/N42T mutant infected in human MT2 cells or CEMx174 5.25 M7 cells in absence of HP23 to EC50 for Antiviral activity against T20 resistant HIV1 NL4-3 harboring with V38E/N42T mutant infected in human MT2 cells or CEMx174 5.25 M7 cells at 150:1 compound to HP23 ratio. It counts as functional.

Experiment [20] has as its system Human immunodeficiency virus 1. The experiment is described as follows: Antiviral activity against T2635 resistant HIV1 LAI harboring Q66R mutant infected in human MT2 cells or CEMx174 5.25 M7 cells assessed as reduction in p24 Gag protein production at 25:1 ratio of compound to HP23 measured at 4 days post infection by ELISA. It counts as functional, organism-based, M:B_Lai.

The source made the active and inactive calls. No cut-off for these calls is given here. Starred links: 1 amine or outer side, 2 acyl side, 3 side chain; linkers in the order of their positions; H or OH if unused. Positions of bridges follow the written chain, without caps; N, C: chain ends. Non-standard residues stand in square brackets, D forms with d. Residues, ends and D or L forms follow the SMILES beside them. ξ: configuration not given here. mXylylene = c1cc(C[*:1])cc(C[*:2])c1; ξhCys = NC(CCS)C(=O)O

Chain of Envelope glycoprotein gp160 (Human immunodeficiency virus 1) (Q6QLK5 1-814): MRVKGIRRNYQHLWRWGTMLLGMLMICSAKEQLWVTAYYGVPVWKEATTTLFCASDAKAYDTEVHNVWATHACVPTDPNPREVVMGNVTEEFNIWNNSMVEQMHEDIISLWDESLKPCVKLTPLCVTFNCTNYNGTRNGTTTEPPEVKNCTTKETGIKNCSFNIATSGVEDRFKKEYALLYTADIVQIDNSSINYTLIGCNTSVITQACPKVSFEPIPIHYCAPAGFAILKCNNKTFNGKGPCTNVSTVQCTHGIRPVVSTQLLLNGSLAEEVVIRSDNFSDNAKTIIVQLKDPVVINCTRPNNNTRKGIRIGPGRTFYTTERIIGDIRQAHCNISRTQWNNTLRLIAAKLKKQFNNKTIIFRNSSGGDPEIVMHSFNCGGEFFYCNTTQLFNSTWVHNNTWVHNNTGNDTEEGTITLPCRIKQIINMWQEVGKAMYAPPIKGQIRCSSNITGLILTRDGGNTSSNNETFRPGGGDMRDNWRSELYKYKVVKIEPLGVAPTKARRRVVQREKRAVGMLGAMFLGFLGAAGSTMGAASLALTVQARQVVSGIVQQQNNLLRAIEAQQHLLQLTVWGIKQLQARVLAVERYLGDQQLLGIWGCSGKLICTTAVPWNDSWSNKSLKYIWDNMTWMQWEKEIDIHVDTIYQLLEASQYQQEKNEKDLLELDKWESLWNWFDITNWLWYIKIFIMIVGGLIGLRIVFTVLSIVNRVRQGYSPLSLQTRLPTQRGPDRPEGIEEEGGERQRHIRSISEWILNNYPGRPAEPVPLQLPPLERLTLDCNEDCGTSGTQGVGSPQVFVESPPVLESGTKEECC

As for H-EMTWEEWEKKIEEYTKKIEEILK-OH, the EC50 amounted to 0.7 nM in experiment [1], 0.9 nM in experiment [4] and 0.6 nM in experiment [5]. Further, the “Ratio EC50” value in experiment [2] is recorded as 3.6; in experiment [3] it was 1.9; in [6], 2.7; in experiment [7], 3.2.
In the case of `CC[C@H](C)[C@H](NC(C)=O)C(=O)N[C@@H](CCC(=O)O)C(=O)N[C@@H](CCC(=O)O)C(=O)N[C@@H](CC(C)C)C(=O)N[C@H](C(=O)NC1CCSCc2cccc(c2)CSCCC(C(=O)N[C@@H](CCC(N)=O)C(=O)N[C@@H](CCC(N)=O)C(=O)N[C@@H](CCCNC(=N)N)C(=O)N[C@@H](CCCCN)C(=O)N[C@@H](CC(N)=O)C(=O)N[C@@H](CCC(=O)O)C(=O)N[C@@H](CCC(=O)O)C(=O)N[C@@H](C)C(=O)N[C@@H](CC(C)C)C(=O)N[C@@H](CCCNC(=N)N)C(=O)N[C@@H](CCC(=O)O)C(=O)N[C@@H](CC(C)C)C(N)=O)NC(=O)[C@H](CCC(N)=O)NC(=O)[C@H](C)NC(=O)[C@H](C)NC1=O)[C@@H](C)CC` (stereo not given in full) (Ac-IEELI[ξhCys]AAQ[ξhCys]QQRKNEEALREL-NH2; linker 6-10 via mXylylene), in experiment [8], the outcome was Active. Besides, the CI in experiment [9] turned out to be 0.9; in experiment [10] it was 0.8; in [11], 0.7; in experiment [18], 0.7. Also, the EC50 in experiment [12] was found to be 7.6 nM; in [14] it was 4.1 nM; in experiment [15] it was 6 nM; in [20] it was 39.5 nM. Besides, the “Ratio EC50” value in experiment [13] worked out at 3.6; in experiment [16] it was 5; in experiment [17], 1.6; in experiment [19] it was 3.1.

As a reminder, the EC50 is the concentration that produces a half-maximal response.
